Here are results for two compounds from patent US20240309043A1, “THERAPEUTICALLY ACTIVE STEROIDAL DERIVATIVES” (Organon R&D Finland Ltd., priority 2017, published 2024).

The structures appear in SMILES notation.

In series [1] the test system is HSD1 enzyme that is expressed in rabbit placenta tissue. Nature of the series: Inhibition of E1 to E2 conversion in rabbit placenta tissue homogenate. The series is classed as biochemical. To be noted: inhibitor 100 nM, 30 nM estrone, 30 min.
For series [2], the target named is T1, recombinant human 17β-HSD2 (Homo sapiens, UniProt P37059).
T1 construct: made in house; host or cells: Sd9 (Sf9) insect cells, baculovirus (Bac to Bac Expression System)
T1 sequence (P37059 1-387): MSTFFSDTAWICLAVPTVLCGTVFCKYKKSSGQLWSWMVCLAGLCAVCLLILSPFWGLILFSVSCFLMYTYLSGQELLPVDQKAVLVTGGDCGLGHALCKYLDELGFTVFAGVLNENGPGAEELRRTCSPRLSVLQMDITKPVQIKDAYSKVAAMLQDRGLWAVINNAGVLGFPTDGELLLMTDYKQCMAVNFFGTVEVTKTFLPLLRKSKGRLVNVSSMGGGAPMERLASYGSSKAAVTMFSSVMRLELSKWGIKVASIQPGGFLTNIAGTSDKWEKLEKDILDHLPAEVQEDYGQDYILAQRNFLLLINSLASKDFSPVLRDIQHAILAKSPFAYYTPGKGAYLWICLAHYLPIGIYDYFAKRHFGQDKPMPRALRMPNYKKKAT
Nature of the series: Inhibition of recombinant human 17β-HSD2. The series is classed as biochemical. As to conditions: inhibitor 1 μM; 50 nM estradiol, 1 mM NADH, 30 min RT. The essentials:
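Sf9 baculovirus-expressed enzyme membrane extract (4 μg/ml) incubated 30 min at RT in 20 mM KH2PO4 pH 8.5 with 50 nM estradiol (³H-tracer) and 1 mM NADH, inhibitor at 1 μM or 0.1 μM, 1% DMSO. TCA-stopped; estradiol-to-estrone conversion by radio-HPLC, % inhibition = 100 − % conversion.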

In another series the test system is human hepatocytes. Nature of the series: Metabolic stability assay, human hepatocyte incubations. The series is classed as in vitro ADME. As to conditions: 37° C., 0-60 min, half life. As to the method: The in vitro metabolic stability of the compounds of the invention was determined for exemplified compounds using human hepatocyte incubations. Study compounds were incubated 0, 10, 20, 40 and 60 min at 37° C. Samples were collected at all time points and compounds were detected by LC-MS/MS analysis. The percent compound remaining is calculated by comparing the peak area of the parent compound at each time point to time zero. In vitro metabolic stability was determined as half life (T½), which was determined by regression analysis of the percent parent disappearance vs. time curve. The results are summarized in Table2.

Series [3] concerns the target T2, recombinant human 17β-HSD1 (Homo sapiens, UniProt P14061).
T2 construct: made in house; host or cells: Sd9 (Sf9) insect cells, baculovirus (Bac to Bac Expression System)
T2 sequence (P14061 1-328): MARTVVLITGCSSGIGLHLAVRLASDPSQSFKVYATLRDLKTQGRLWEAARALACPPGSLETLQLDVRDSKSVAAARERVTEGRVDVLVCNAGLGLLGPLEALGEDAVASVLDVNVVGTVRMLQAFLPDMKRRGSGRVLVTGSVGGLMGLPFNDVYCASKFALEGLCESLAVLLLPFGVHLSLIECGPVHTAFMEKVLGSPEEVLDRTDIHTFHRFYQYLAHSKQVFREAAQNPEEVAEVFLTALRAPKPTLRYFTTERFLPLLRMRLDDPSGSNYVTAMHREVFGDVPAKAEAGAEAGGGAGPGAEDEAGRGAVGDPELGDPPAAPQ
Nature of the series: Inhibition of recombinant human 17β-HSD1. To be noted: inhibitor 100 nM; 30 nM estrone, 1 mM NADPH, 30 min RT. The series is classed as biochemical. In outline: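 Microsomes from Sf9 cells expressing human 17β-HSD1 (1 μg/ml) were incubated for 30 min at RT in 20 mM KH2PO4 pH 7.4 with 30 nM ³H-estrone, 1 mM NADPH and inhibitor at 1 μM or 0.1 μM (1% DMSO). Estrone-to-estradiol conversion was measured by radio-HPLC after TCA stop, and % inhibition was taken as 100 − % conversion.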

What is called inhibition is the drop in the measured response relative to a control, in per cent. Turning to `C[C@]12CCC3c4ccccc4CCC3C1[C@H](CCC(=O)Nc1ccc(N3CCOCC3)cn1)C/C2=N\O` (stereo partly drawn) [Compound 90, 3-((13S,15R,E)-17-(hydroxyimino)-13-methyl-7,8,9,11,12,13,14,15,16,17-decahydro-6H-cyclopenta[a]phenanthren-15-yl)-N-(5-morpholinopyridin-2-yl)propanamide], in series [1], the “Rabbit placenta inhibition % @100 nM” value is recorded as 47%. Also, the inhibition at 1 µM in series [2] is -6%. The “Human hepatocytes MetStab T1_2 min” value in the series on human hepatocytes is reported as 83 min. In addition, the inhibition at 0.1 µM in series [3] stood at 82%.

`C[C@]12CCC3c4cccc(F)c4CCC3C1[C@H](CCC(=O)Nc1ccc(N3CCOCC3)cn1)C/C2=N\O` (stereo partly drawn) [Compound 114, 3-((13S,15R,E)-4-fluoro-17-(hydroxyimino)-13-methyl-7,8,9,11,12,13,14,15,16,17-decahydro-6H-cyclopenta[a]phenanthren-15-yl)-N-(5-morpholinopyridin-2-yl)propanamide]: in series [1], the “Rabbit placenta inhibition % @100 nM” value is given as 75%. The inhibition at 1 µM in series [2] came out at 7%. Moreover, the “Human hepatocytes MetStab T1_2 min” value in the series with human hepatocytes worked out at 40 min. In addition, in series [3], the inhibition at 0.1 µM was 100%.
